Holding throughout (assay type): physicochemical
A short description of data set [1]: Solubility in water (saturated solution / solubility limit). The method, then:
(§1) A series of aqueous solutions of various concentrations of n-octylurea [Pfaltz & Bauer] was prepared by placing the urea into water and shaking the mixture for 1-2 h. All of the urea dissolved in the low concentration samples. Undissolved urea in some of the higher concentration samples was remove by filtration. Surface tensions of these solutions were measured using the Wilheimy plate technique. This method provides equilibrium surface tension values. Equilibrium values are always equal to or lower than those obtained under dynamic conditions.
(§2) A saturated solution in distilled water of N,N'-di-n-butylurea was prepared by placing 0.1 g of the urea into 99.9 g of water and shaking the mixture for 1-2 h. […] The solids were removed by filtration, and the dynamic surface tension of the resulting solution was measured using the maximum bubble pressure method at bubble rates from 0.1 to 20 b/s. […] In practical terms, high bubble rates correspond to high printing speeds in lithographic or ink-jet printing, high spray or roller velocities in coating applications, and rapid application rates for agricultural products.
A saturated solution in distilled water of N,N-di-(2-ethylhexyl)urea was prepared by placing 0.1 g of the urea into 99.9 g of water and shaking the mixture for 1-2 h. […] The solids were removed by filtration, and the surface tension of the resulting solution was measured as described above.
Similarly, a saturated solution in distilled water of N,N-di-n-octylurea was prepared by placing 0.1 g of the urea into 99.9 g of water and shaking the mixture for 1-2 hr. […] The solids were removed by filtration, and the surface tension of the resulting solution was measured as described above.
A saturated solution in distilled water of N,N-di-n-hexylurea was prepared by placing 0.1 g of the urea into 99.9 g of water and shaking the mixture for 1-2 h. […] The solids were removed by filtration, and the surface tension of the resulting solution was measured as described above.

Data set [2] in a line: Dynamic surface tension of aqueous solutions, maximum-bubble-pressure method. The conditions noted are these: for Dynamic Surface Tension: about 23° C.
Source text: This invention relates to the use of compounds of the formula [drawing 3] where R1 and R2 are independently C1 to C6 alkyl or cycloalkyl with the total number of carbons in R and R' being 6-12 for the reduction of equilibrium and dynamic surface tension in water-based formulations containing an organic compound, particularly coating, ink, and agricultural formulations. […] The maximum-bubble-pressure method of measuring surface tension is described in Langmuir 1986, 2, 428-432, which is incorporated by reference.
In the following examples dynamic surface tension data were generated for aqueous solutions of the indicated compounds using the maximum-bubble-pressure method at the indicated bubble rates, i.e., bubbles/second (b/s), and room temperature of about 23° C. The equipment used was a Kruss BP 2 bubble pressure tensiometer.
as §2
Aqueous solutions of N,N-dibutylurea were prepared and their surface tensions were measured using the procedure described above.

Data set [3] is described as follows: Foaming properties of 0.1 wt % solution, procedure based upon ASTM D 1173-53. As to the method:
The foaming properties of a 0.1 wt % solution of N,N-dibutylurea, N,N-dipentyl-urea, and N,N-dihexylurea were examined using a procedure based upon ASTM D 1173-53. In this test, a 0.1 wt % solution of the surfactant is added from an elevated foam pipette to a foam receiver containing the same solution. The foam height is measured at the completion of the addition ("Initial Foam Height") and the time required for the foam to dissipate is recorded ("Time to 0 Foam"). This test provides a comparison between the foaming characteristics of various surfactant solutions. In general, in coatings, inks, and agricultural formulations, foam is undesirable because is complicates handling and can lead to coating and print defects, and to inefficient application of agricultural materials.

Data set [4] can be described thus: Equilibrium surface tension of aqueous solutions, Wilhelmy plate technique. As to the method:
as §1

Converted amounts (≈) assume the structure as drawn. Some results are limits rather than exact numbers.

The results in this text go back to patent publication US5985968A, “Surface tension reduction with N,N-dialkyl ureas” (Air Products and Chemicals, Inc., priority 1997, dated 1999).

As for `CCCCCCN(CCCCCC)C(N)=O` [N,N-Di-n-hexylurea, N,N-di-n-hexylurea], the “dissolution (in words)” value in data set [1] (0.1 g urea in 99.9 g water, shaken 1-2 h) is recorded as “Most of the N,N-di-n-hexylurea remained undissolved”. Further, the solubility thermodynamic in data set [1] (saturated solution in distilled water, solids filtered off, read-out: Concentration of saturated solution) is below 1000 µg/mL. The “Dynamic Surface Tension” value in data set [2] (saturated (<0.1 wt %), 0.1 b/s) is given as 34.7 dyne/cm; in data set [2] (saturated (<0.1 wt %), 1 b/s), 42.8 dyne/cm; in data set [2] (saturated (<0.1 wt %), 6 b/s), 56.8 dyne/cm; in data set [2] (saturated (<0.1 wt %), 15 b/s), 63.7 dyne/cm; in data set [2] (saturated (<0.1 wt %), 20 b/s), 62.4 dyne/cm. In addition, the “Initial Foam Height” value in data set [3] came out at 1.0 cm. Further, the “Time to 0 Foam” value in data set [3] was 2 s.
For the molecule `CCCCN(CCCC)C(N)=O` [N,N-Dibutylurea, N,N-dibutylurea], the “Dynamic Surface Tension” value came out at 42.9 dyne/cm in data set [2] (0.3 wt %, 0.1 b/s); 43.1 dyne/cm in data set [2] (0.3 wt %, 1 b/s); 43.4 dyne/cm in data set [2] (0.3 wt %, 6 b/s); 43.4 dyne/cm in data set [2] (0.3 wt %, 15 b/s); 43.6 dyne/cm in data set [2] (0.3 wt %, 20 b/s); 32.7 dyne/cm in data set [2] (1.0 wt %, 0.1 b/s). For the same molecule, the “Dynamic Surface Tension” value in data set [2] (1.0 wt %, 1 b/s) turned out to be 32.9 dyne/cm; in data set [2] (1.0 wt %, 6 b/s), 33.2 dyne/cm; in data set [2] (1.0 wt %, 15 b/s), 33.8 dyne/cm; in data set [2] (1.0 wt %, 20 b/s), 34.1 dyne/cm; in data set [2] (1.5 wt %, 0.1 b/s) it was 28.2 dyne/cm; in data set [2] (1.5 wt %, 1 b/s), 28.3 dyne/cm. In addition, the “Dynamic Surface Tension” value was 28.5 dyne/cm in data set [2] (1.5 wt %, 6 b/s); 29.1 dyne/cm in data set [2] (1.5 wt %, 15 b/s); 29.5 dyne/cm in data set [2] (1.5 wt %, 20 b/s); “below 30 dyne/cm” in data set [2] (1.5 wt %, 20 b/s, listed as N,N-dibutylurea). For the same molecule, the “Surface tension reduction (in words)” value in data set [2] (summary of dynamic surface tension data) is “highly effective at reducing the surface tension of water”. Further, the “Initial Foam Height” value in data set [3] is 3.0 cm. Moreover, the “Time to 0 Foam” value in data set [3] stood at 5 s.
As a reminder, the solubility is the dissolved amount per volume that the medium holds. High values mean much dissolved substance, low ones little dissolved substance. `CCCCCCCCNC(N)=O` [N-Octylurea, n-octylurea]: the Equilibrium surface tension in data set [4] (0.0001 wt % in water) was found to be 72.2 dyne/cm; in data set [4] (0.0005 wt % in water), 72.1 dyne/cm; in data set [4] (0.001 wt % in water), 72.0 dyne/cm; in data set [4] (0.003 wt % in water), 68.9 dyne/cm; in data set [4] (0.005 wt % in water) it was 62.4 dyne/cm; in data set [4] (0.007 wt % in water) it was 60.0 dyne/cm. In addition, the Equilibrium surface tension was found to be 57.0 dyne/cm in data set [4] (0.009 wt % in water), 57.1 dyne/cm in data set [4] (0.015 wt % in water), 55.5 dyne/cm in data set [4] (0.03 wt % in water) and 57.1 dyne/cm in data set [4] (0.06 wt % in water). For the same molecule, in data set [4] (limiting value from Table 1 data), the “lowest surface tension which can be obtained for an aqueous solution” value is “about 56 dyne/cm”. Besides, the solubility in data set [1] (in water) was 100 µg/mL (≈ 580 µM).
On to N,N-dipentylurea, for which the solubility limit in data set [1] (in water) is reported as 0.3 wt %. Also, the “Dynamic Surface Tension” value is 36.3 dyne/cm in data set [2] (0.1 wt %, 0.1 b/s); 37.1 dyne/cm in data set [2] (0.1 wt %, 1 b/s); 38.7 dyne/cm in data set [2] (0.1 wt %, 6 b/s); 40.7 dyne/cm in data set [2] (0.1 wt %, 15 b/s); 41.3 dyne/cm in data set [2] (0.1 wt %, 20 b/s); 32.8 dyne/cm in data set [2] (0.2 wt %, 0.1 b/s). The “Dynamic Surface Tension” value in data set [2] (0.2 wt %, 1 b/s) is 33.4 dyne/cm; in data set [2] (0.2 wt %, 6 b/s) it was 34.6 dyne/cm; in data set [2] (0.2 wt %, 15 b/s), 36.2 dyne/cm; in data set [2] (0.2 wt %, 20 b/s), 36.3 dyne/cm; in data set [2] (0.3 wt %, 0.1 b/s), 30.9 dyne/cm; in data set [2] (0.3 wt %, 1 b/s), 31.5 dyne/cm. Further, the “Dynamic Surface Tension” value in data set [2] (0.3 wt %, 6 b/s) was 32.4 dyne/cm; in data set [2] (0.3 wt %, 15 b/s) it was 32.9 dyne/cm; in data set [2] (0.3 wt %, 20 b/s) it was 33.1 dyne/cm. In addition, the “Initial Foam Height” value in data set [3] is 1.5 cm. For the same molecule, the “Time to 0 Foam” value in data set [3] is recorded as 3 s.
